≈ marks a conversion by molar mass, not a printed value. Numbered stars: 1 amine (or outer) side, 2 acyl side, 3 side chain; on linkers, the order of the positions; unused ones are H or OH. Bridge positions count the residues as written; N and C are the ends. Square brackets hold non-standard residues; d marks the D form. Peptide text beside a SMILES is read from it. I, II: the chains in the order shown. X4 = NCCCC[C@@H](CNC(=O)[*:1])N[*:2]; Nle = CCCC[C@H](N)C(=O)O

One series concerns the target T1, human glucagon receptor (Homo sapiens, UniProt P47871).
T1 construct: expressed in transfected cells; host or cells: CHO cells
Briefly: Glucagon functional assay: agonist activity by cAMP production (HTRF) in transfected CHO cells. The class given is cell-based. The conditions noted are these: cAMP production, transfected CHO cells, 10 minutes at 37° C. The protocol:
Functional Assay to Examine Bioactivity of Glucagon Receptor Agonists. Evaluation of the agonist activity of compounds at the human glucagon receptor expressed in transfected CHO cells was examined by measuring their effects on cAMP production using the HTRF detection method. […] For stimulated control measurement, separate assay wells contain 100 nM glucagon were utilized.
Following incubation, the cells were lysed and the fluorescence acceptor (D2-labeled cAMP) and fluorescence donor (anti-cAMP antibody labeled with europium cryptate) were added. […] The results are expressed as a percent of the control response to 100 nM glucagon. The standard reference agonist is glucagon, which was tested in each experiment at several concentrations to generate a concentration-response curve from which its EC50 value was calculated.
HTRF (Homogeneous Time-Resolved Fluorescence) principle. The HTRF technology is based on time resolved fluorescence energy transfer (TR-FRET), which occurs between long-lived fluorophore Europium or Terbium Cryptates, and EuK or Tb respectively, as a donor and the allophycocyanin XL665, d2 or Red as acceptor. Many compounds and proteins present in biological fluids or serum are naturally fluorescent, and the use of conventional, prompt fluorescence leads to serious limitations in assay sensitivity. The use of long-lived fluorophore combined with time-resolved detection (a delay between excitation and emission detection) minimizes prompt fluorescence interference.
Background: Cyclic AMP is a second messenger, typically raised through Gs and lowered through Gi signalling.

Series [1] is described as follows: Solubility of glucagon analogs (UV absorbance).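 On all read-outs here: peptide stock at 3 mg/ml in 0.01 M HCl, absorbance at 280 nm read before neutralization and again on the diluted supernatant after centrifugation.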 The note with it: for solubility: 0.01M HCl solution adjusted to pH 7 with Na2HPO4, pH 7, pH adjusted to 7 with Na2HPO4, incubated overnight at 4° C.; for ratio (solubility relative to reference compound 16): relative to compound 16. In kind it is physicochemical.
Protocol: A solution of 3 mg/ml of glucagon (or analog) was prepared in a 0.01M HCl solution. Then 0.1 ml of the stock solution was diluted to 1 ml with HCl (0.01M) and the UV absorbance measured (to 280 nm) with nanodrop UV spectrometer. The pH of the remaining stock solution was adjusted to 7 using Na2HPO4, and the solution was incubated overnight at 4° C. The solution was then centrifuged three times (5 minutes, 4000 rotations per minute), 0.1 ml of the supernatant was removed and diluted to 1 ml with HCl solution (0.01M).
The final UV absorbance was measured.

T1 sequence (P47871 26-477): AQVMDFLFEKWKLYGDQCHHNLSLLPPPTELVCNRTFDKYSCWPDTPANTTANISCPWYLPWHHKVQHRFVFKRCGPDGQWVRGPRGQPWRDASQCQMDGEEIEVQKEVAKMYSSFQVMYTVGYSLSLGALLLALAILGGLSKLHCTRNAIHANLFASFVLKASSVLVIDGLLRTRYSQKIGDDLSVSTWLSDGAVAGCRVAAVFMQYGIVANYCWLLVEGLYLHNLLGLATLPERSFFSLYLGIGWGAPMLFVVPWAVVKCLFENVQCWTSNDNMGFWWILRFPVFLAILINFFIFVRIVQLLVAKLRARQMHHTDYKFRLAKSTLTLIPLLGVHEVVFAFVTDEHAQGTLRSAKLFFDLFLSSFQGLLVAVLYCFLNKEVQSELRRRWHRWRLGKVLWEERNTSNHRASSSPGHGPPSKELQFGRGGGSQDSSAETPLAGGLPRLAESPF

Take `CCCC[C@H](NC(=O)[C@H](CC(C)C)NC(=O)[C@H](Cc1c[nH]c2ccccc12)NC(=O)[C@H](CCC(N)=O)NC(=O)NC[C@H](C)NC(=O)[C@H](Cc1ccccc1)NC(=O)[C@H](CC(=O)O)NC(=O)[C@H](CCC(N)=O)NC(=O)[C@H](C)NC(=O)[C@H](CCCNC(=N)N)NC(=O)[C@H](CCCNC(=N)N)NC(=O)[C@H](CO)NC(=O)[C@H](CC(=O)O)NC(=O)[C@H](CC(C)C)NC(=O)[C@H](Cc1ccc(O)cc1)NC(=O)[C@H](CCCCN)NC(=O)[C@H](CO)NC(=O)[C@H](Cc1ccc(O)cc1)NC(=O)[C@H](CC(=O)O)NC(=O)[C@H](CO)NC(=O)[C@@H](NC(=O)[C@H](Cc1ccccc1)NC(=O)[C@@H](NC(=O)CNC(=O)[C@H](CCC(N)=O)NC(=O)[C@H](CO)NC(=O)[C@@H](N)Cc1c[nH]cn1)[C@@H](C)O)[C@@H](C)O)C(=O)N[C@@H](CC(N)=O)C(=O)N[C@H](C(=O)O)[C@@H](C)O` [Compound 55]: at human glucagon receptor, the EC50 (as a rule, the midpoint of the concentration-response curve) came to 34 nM. Also, in series [1], the solubility (as a rule, the dissolved amount per volume that the medium holds) came to 1390 µg/mL (≈ 401 µM) and the “ratio (solubility relative to reference compound 16)” value amounted to 5.5.
In the case of `CCCC[C@H](NC(=O)[C@H](CC(C)C)NC(=O)[C@H](Cc1c[nH]c2ccccc12)NC(=O)NC[C@H](C)NC(=O)[C@@H](NC(=O)[C@H](Cc1ccccc1)NC(=O)[C@H](CC(=O)O)NC(=O)[C@H](CCC(N)=O)NC(=O)[C@H](C)NC(=O)[C@H](CCCNC(=N)N)NC(=O)[C@H](CCCNC(=N)N)NC(=O)[C@H](CO)NC(=O)[C@H](CC(=O)O)NC(=O)[C@H](CC(C)C)NC(=O)[C@H](Cc1ccc(O)cc1)NC(=O)[C@H](CCCCN)NC(=O)[C@H](CO)NC(=O)[C@H](Cc1ccc(O)cc1)NC(=O)[C@H](CC(=O)O)NC(=O)[C@H](CO)NC(=O)[C@@H](NC(=O)[C@H](Cc1ccccc1)NC(=O)[C@@H](NC(=O)CNC(=O)[C@H](CCC(N)=O)NC(=O)[C@H](CO)NC(=O)[C@@H](N)Cc1c[nH]cn1)[C@@H](C)O)[C@@H](C)O)C(C)C)C(=O)N[C@@H](CC(N)=O)C(=O)N[C@H](C(=O)O)[C@@H](C)O` [Compound 56], the midpoint of the response at human glucagon receptor, the EC50, lay at 0.072 nM. In series [1], the solubility turned out to be 700 µg/mL (≈ 204 µM) and the “ratio (solubility relative to reference compound 16)” value is 2.8.
As to `CCCC[C@H](NC(=O)[C@H](CC(C)C)NC(=O)NC[C@H](C)NC(=O)[C@H](CCC(N)=O)NC(=O)[C@@H](NC(=O)[C@H](Cc1ccccc1)NC(=O)[C@H](CC(=O)O)NC(=O)[C@H](CCC(N)=O)NC(=O)[C@H](C)NC(=O)[C@H](CCCNC(=N)N)NC(=O)[C@H](CCCNC(=N)N)NC(=O)[C@H](CO)NC(=O)[C@H](CC(=O)O)NC(=O)[C@H](CC(C)C)NC(=O)[C@H](Cc1ccc(O)cc1)NC(=O)[C@H](CCCCN)NC(=O)[C@H](CO)NC(=O)[C@H](Cc1ccc(O)cc1)NC(=O)[C@H](CC(=O)O)NC(=O)[C@H](CO)NC(=O)[C@@H](NC(=O)[C@H](Cc1ccccc1)NC(=O)[C@@H](NC(=O)CNC(=O)[C@H](CCC(N)=O)NC(=O)[C@H](CO)NC(=O)[C@@H](N)Cc1c[nH]cn1)[C@@H](C)O)[C@@H](C)O)C(C)C)C(=O)N[C@@H](CC(N)=O)C(=O)N[C@H](C(=O)O)[C@@H](C)O` [Compound 57], at human glucagon receptor, the EC50 came to 22 nM. Also, in series [1], the solubility is 970 µg/mL (≈ 287 µM) and the “ratio (solubility relative to reference compound 16)” value was determined as 3.9.
Regarding `CCCC[C@H](NC(=O)NC[C@H](C)NC(=O)[C@H](Cc1c[nH]c2ccccc12)NC(=O)[C@H](CCC(N)=O)NC(=O)[C@@H](NC(=O)[C@H](Cc1ccccc1)NC(=O)[C@H](CC(=O)O)NC(=O)[C@H](CCC(N)=O)NC(=O)[C@H](C)NC(=O)[C@H](CCCNC(=N)N)NC(=O)[C@H](CCCNC(=N)N)NC(=O)[C@H](CO)NC(=O)[C@H](CC(=O)O)NC(=O)[C@H](CC(C)C)NC(=O)[C@H](Cc1ccc(O)cc1)NC(=O)[C@H](CCCCN)NC(=O)[C@H](CO)NC(=O)[C@H](Cc1ccc(O)cc1)NC(=O)[C@H](CC(=O)O)NC(=O)[C@H](CO)NC(=O)[C@@H](NC(=O)[C@H](Cc1ccccc1)NC(=O)[C@@H](NC(=O)CNC(=O)[C@H](CCC(N)=O)NC(=O)[C@H](CO)NC(=O)[C@@H](N)Cc1c[nH]cn1)[C@@H](C)O)[C@@H](C)O)C(C)C)C(=O)N[C@@H](CC(N)=O)C(=O)N[C@H](C(=O)O)[C@@H](C)O` [Compound 58], at human glucagon receptor, the EC50 is 35 nM. Further, in series [1], the solubility turned out to be 1510 µg/mL (≈ 437 µM) and the “ratio (solubility relative to reference compound 16)” value came to 6.0.
Consider `CCCC[C@H](NC(=O)[C@H](CC(C)C)NC(=O)[C@H](Cc1c[nH]c2ccccc12)NC(=O)[C@H](CCC(N)=O)NC(=O)[C@@H](NC(=O)[C@H](Cc1ccccc1)NC(=O)[C@H](CC(=O)O)NC(=O)[C@H](CCC(N)=O)NC(=O)[C@H](C)NC(=O)[C@H](CCCNC(=N)N)NC(=O)[C@H](CCCNC(=N)N)NC(=O)[C@H](CO)NC(=O)[C@H](CC(=O)O)NC(=O)[C@H](CC(C)C)NC(=O)[C@H](Cc1ccc(O)cc1)NC(=O)NC[C@H](CCCCN)NC(=O)[C@H](CO)NC(=O)[C@H](Cc1ccc(O)cc1)NC(=O)[C@H](CC(=O)O)NC(=O)[C@H](CO)NC(=O)[C@@H](NC(=O)[C@H](Cc1ccccc1)NC(=O)[C@@H](NC(=O)CNC(=O)[C@H](CCC(N)=O)NC(=O)[C@H](CO)NC(=O)[C@@H](N)Cc1c[nH]cn1)[C@@H](C)O)[C@@H](C)O)C(C)C)C(=O)N[C@@H](CC(N)=O)C(=O)N[C@H](C(=O)O)[C@@H](C)O` [Compound 59] (I: YLDSRRAQDFVQWL[Nle]NT-OH / II: H-HSQGTFTSDYS; linker I:N-II:C via X4; C-terminus assumed), for which the response on human glucagon receptor was half-maximal at 32 nM (EC50). Moreover, in series [1], the solubility amounted to 720 µg/mL (≈ 206 µM) and the “ratio (solubility relative to reference compound 16)” value was 2.9.
Regarding `CCCC[C@H](NC(=O)[C@H](CC(C)C)NC(=O)[C@H](Cc1c[nH]c2ccccc12)NC(=O)[C@H](CCC(N)=O)NC(=O)[C@@H](NC(=O)[C@H](Cc1ccccc1)NC(=O)[C@H](CC(=O)O)NC(=O)NC[C@H](CCC(N)=O)NC(=O)[C@H](C)NC(=O)[C@H](CCCNC(=N)N)NC(=O)[C@H](CCCNC(=N)N)NC(=O)[C@H](CO)NC(=O)[C@H](CC(=O)O)NC(=O)[C@H](CC(C)C)NC(=O)[C@H](Cc1ccc(O)cc1)NC(=O)[C@H](CCCCN)NC(=O)[C@H](CO)NC(=O)[C@H](Cc1ccc(O)cc1)NC(=O)[C@H](CC(=O)O)NC(=O)[C@H](CO)NC(=O)[C@@H](NC(=O)[C@H](Cc1ccccc1)NC(=O)[C@@H](NC(=O)CNC(=O)[C@H](CCC(N)=O)NC(=O)[C@H](CO)NC(=O)[C@@H](N)Cc1c[nH]cn1)[C@@H](C)O)[C@@H](C)O)C(C)C)C(=O)N[C@@H](CC(N)=O)C(=O)N[C@H](C(=O)O)[C@@H](C)O` [Compound 60], on human glucagon receptor, the EC50 came out at 36 nM. In series [1], the solubility stood at 830 µg/mL (≈ 238 µM) and the “ratio (solubility relative to reference compound 16)” value came out at 3.3.
Take `CCCC[C@H](NC(=O)[C@H](CC(C)C)NC(=O)[C@H](Cc1c[nH]c2ccccc12)NC(=O)[C@H](CCC(N)=O)NC(=O)[C@@H](NC(=O)[C@H](Cc1ccccc1)NC(=O)NC[C@H](CC(=O)O)NC(=O)[C@H](CCC(N)=O)NC(=O)[C@H](C)NC(=O)[C@H](CCCNC(=N)N)NC(=O)[C@H](CCCNC(=N)N)NC(=O)[C@H](CO)NC(=O)[C@H](CC(=O)O)NC(=O)[C@H](CC(C)C)NC(=O)[C@H](Cc1ccc(O)cc1)NC(=O)[C@H](CCCCN)NC(=O)[C@H](CO)NC(=O)[C@H](Cc1ccc(O)cc1)NC(=O)[C@H](CC(=O)O)NC(=O)[C@H](CO)NC(=O)[C@@H](NC(=O)[C@H](Cc1ccccc1)NC(=O)[C@@H](NC(=O)CNC(=O)[C@H](CCC(N)=O)NC(=O)[C@H](CO)NC(=O)[C@@H](N)Cc1c[nH]cn1)[C@@H](C)O)[C@@H](C)O)C(C)C)C(=O)N[C@@H](CC(N)=O)C(=O)N[C@H](C(=O)O)[C@@H](C)O` [Compound 61]: a half-maximal effect on human glucagon receptor (EC50) was put at 0.1 nM. For the same compound, in series [1], the solubility turned out to be 740 µg/mL (≈ 212 µM) and the “ratio (solubility relative to reference compound 16)” value was determined as 2.9.

The values are drawn from patent US11267861B2, “Peptide-oligourea foldamer compounds and methods of their use” (UREKA SARL, priority 2016, dated 2022).
